Data on one molecule can be found in patent US20060009520A1, “Retinoid-based methods for altering macrophage cholesterol” (priority 2004, published 2006).

Series [1] in a line: Plasma and hepatic lipid analysis. The note with it: mice; for Hepatic lipid Cholesterol / Hepatic lipid Triglycerides / Plasma lipid Cholesterol / Plasma lipid Triglycerides: 24 h. It is filed as in vivo, mouse. How it is done:
Mice were fasted for 3 h before blood collection. Plasma was separated by centrifugation and kept at −80° C. until lipid analysis. Liver tissue samples (50 to 75 mg) were homogenized in PBS. Lipids were then extracted with chloroform-methanol (2/1 [vol/vol]) and redissolved in isopropanol. Triglyceride and cholesterol were measured in plasma and in the liver lipid extracts by using commercial kits (Wako Chemicals, Neusse Germany).

A further series deals with T1, FXR (Mus musculus, UniProt Q60641).
T1 sequence (Q60641 1-488): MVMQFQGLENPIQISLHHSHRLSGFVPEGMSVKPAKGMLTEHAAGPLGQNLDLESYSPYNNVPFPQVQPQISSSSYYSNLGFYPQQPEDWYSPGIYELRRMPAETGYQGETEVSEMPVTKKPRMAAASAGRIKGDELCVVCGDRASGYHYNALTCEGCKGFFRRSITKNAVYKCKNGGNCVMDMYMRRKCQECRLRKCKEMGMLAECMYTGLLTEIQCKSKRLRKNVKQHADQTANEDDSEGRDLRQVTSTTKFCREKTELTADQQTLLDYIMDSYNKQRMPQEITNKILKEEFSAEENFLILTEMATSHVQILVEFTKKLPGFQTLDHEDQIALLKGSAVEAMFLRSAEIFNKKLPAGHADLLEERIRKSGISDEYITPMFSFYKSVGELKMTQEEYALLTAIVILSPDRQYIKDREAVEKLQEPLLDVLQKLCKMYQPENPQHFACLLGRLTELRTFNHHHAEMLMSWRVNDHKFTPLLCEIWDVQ
Conditions: cited from earlier work.

The test system of the next series is ABCA1 protein. As to the kind of experiment: Western blot of ABCA1 protein in mouse peritoneal macrophages. It is filed as cell-based. The note with it: 24 h. How it is done:
Protein extracts from macrophages were prepared by lysing the cells in modified radioimmunoprecipitation assay buffer (50 mM Tris, 150 mM NaCl, 1 mM EDTA. 1% Triton X-100) containing a protease inhibitor cocktail (Complete EDTA Free; Roche). Protein content in the extracts was determined by using the DC protein assay (Bio-Rad, Hercules, Calif.). Equal amounts of protein (40 to 50 μg) were separated by electrophoresis with 4 to 15% acrylamide gradient gels (Bio-Rad) and then transferred to nitrocellulose membrane (Trans-Blot Transfer Medium; Bio-Rad). Membranes were probed with anti-ABCA1 antibody (Novus Biologicals, Littleton, Colo.) and anti-β-actin antibody (Sigma) according to the manufacturer's recommendations. Immunoblots were developed by using a chemiluminescent detection system (Super Signal West Pico chemiluminescent substrate; Pierce, Rockford, Ill.).
(Immunoblotting shows a protein as a band on a membrane.)

Regarding `C/C(=C\c1ccc(C(=O)O)cc1)c1ccc2c(c1)C(C)(C)CCC2(C)C` [TTNPB, 4-[E-2-5,6.7.8-tetrahydro-5,5,8,8-tetramethyl-2-naphthalenyl-l-propenyl]benzoic acid], in series [1] (1 mg/kg intraperitoneally), the “Hepatic lipid Cholesterol” value was 1.43 ± 0.07 μg/mg of tissue, the “Hepatic lipid Triglycerides” value is 11.57 ± 4.05 μg/mg of tissue, the “Plasma lipid Cholesterol” value came to 64.1 ± 8.0 mg/dL and the “Plasma lipid Triglycerides” value is 35.1 ± 4.0 mg/dL. In series [1] (10 mg/kg intraperitoneally), the “Hepatic lipid Cholesterol” value was 1.31 ± 0.20 μg/mg of tissue, the “Hepatic lipid Triglycerides” value is 9.25 ± 1.98 μg/mg of tissue, the “Plasma lipid Cholesterol” value stood at 58.0 ± 4.9 mg/dL and the “Plasma lipid Triglycerides” value came out at 33.1 ± 3.1 mg/dL. For the same molecule, the “effect on hepatic triglyceride content” value in series [1] (intraperitoneal) was “did not result in an increase”. In addition, the “effect on triglyceride levels in plasma” value in series [1] (intraperitoneal, higher doses) was “significant reduction”. For the same molecule, on FXR, the FXR activation entry is recorded as “activates FXR at relatively high concentrations”. In the series with ABCA1 protein, the ABCA1 protein levels result is recorded as “accumulation of ABCA1 protein”.
